# US12606536B2, “Bioactive phenolate ionic complexes” (priority 2020, dated 2026)
# Counter-ions that a name gives are not always drawn.
# What was measured:
# [1] = Regeneration of thymol from thymol-salts in 0.1 N HCl; type: physicochemical; settings: 0.1N HCl solution (pH = 1), 30 min, heptane extraction
# Procedure: Experimental procedure for regeneration studies: Regeneration studies were performed for 2-isopropyl-5-methylphenolate-salts in the 0.1 N HCl solution (1 pH) followed by extracting free thymol with heptane. The appropriate amount of the corresponding thymol-salt (Table 12) was brought into the 20 mL glass vial. To this, 10 mL of 0.1 N was added. The resultant mixture was kept in a shaker for 30 min. After 30 min of acid treatment, 10 mL of heptane was added to the reaction mixture. The collected organic layer was separated from the water layer and carefully dried using rotavapor followed by drying under a temperature-controlled hot oven at 35° C. for 12 h.
# [2] = Water solubility of CBD metal complexes; type: physicochemical
# Procedure: CBD metal complexes were tested for water solubility (Table 1).
# [3] = Pharmacokinetics of CBD after oral administration, freely moving rats; type: in vivo
# Procedure: (§1) And dispersed in water to form a nano dispersion of about 30 nanometer. This dispersion was administered to rats by either IV or orally.
# For oral administration: Each molecule was dissolved (5% w/w) in pro-nano lipospheres (PNL) formulation (Table 2). Double-distilled water (DDW) was added to a final CBD concentration of 0.5% w/w in the nano-suspension.
# (§2) The oral formulation was administered to the animals by oral gavage with a dosage of 15 mg/kg (corrections for the salts are in Tables 4 and 5). Two groups were assigned randomly to be administered with either CBD (n=5) or Ch-CBD (n=3). Systemic blood samples (0.35 mL) were taken at 5-min pre-dose and at 0.33, 0.66, 1, 1.5, 2, 4, 6, 8 and 10 hr. post dose. To prevent dehydration, equal volumes of physiological solution were administered following each withdrawal of blood sample. Plasma was separated by centrifugation (4000 rpm, 10 min) and stored at −20° C. pending analysis. Plasma aliquots of 150 μL were spiked with 10 μL of internal standard cannabigerol (CBG; 1 μg/mL). ACN (200 μL) was added to each test tube (tubes A) and vortex-mixed for 1 min. The extraction of CBD and CBG was performed by N-hexane (3 mL) that was added to each test tube (tubes A), followed by 1 min. vortex-mixing. After centrifugation at 4000 rpm for 10 min, the n-hexane organic layer was transferred to fresh glass test tubes (tubes B) and evaporated to dryness (Vacuum Evaporation System, Labconco, Kansas City, MO). Then, tubes B were reconstituted in 80 μL of ACN: water (80:20). The resulting solution (80 μl) was injected into the HPLC-MS system. Column used: XTerra MS C18 Column 3.5 μm 2.1×100 mm column (Waters®, Milford, MA). Mobile phase: an isocratic mobile phase of 20:80 (v/v) 2 mM ammonium acetate/acetonitrile. Diluent: 20:80 (v/v) water/acetonitrile. Flow rate: 0.2 mL/min. Column temperature: 35° C.±5° C. Sample Temperature: 20° C.±5° C. The detection masses (m/z): CBG—312.2 and CBD-313.2, with negative electrospray.
# (§3) The amounts found in the plasma for the salts were adjusted with the 0.17 correction factor mentioned in Table 6, to resemble dosage of 1 mg/kg for IV administration and 15 mg/kg for oral administration.
# [4] = HPLC analysis of regenerated CBD from CBD-Choline (1:1) at pH 1.0; type: physicochemical; settings: HCl solution pH = 1.0, 30 min, chloroform extraction
# [5] = Pharmacokinetics of CBD after IV administration, freely moving rats; type: in vivo
# Procedure: as §1
# For IV administration: Each molecule was dissolved (2% w/w) in pro-nano lipospheres (PNL) formulation (Table 3). Double-distilled water (DDW) was added to a final CBD concentration of 0.2% w/w in the nano-suspension.
# Pharmacokinetics (PK) in rats of Cannabidiol (CBD)-choline (Ch) salt following IV and oral administration: Pharmacokinetic study was performed using the freely moving rats model. For intravenously administration a dosage of 1 mg/kg was given (corrections for the salts are in Tables 4 and 5). Two groups were assigned randomly to be administered with either CBD (n=5) or Ch-CBD (n=4). Systemic blood samples (0.35 mL) were taken at 5-min pre-dose and at 5, 15 30 minutes and 1, 1.5, 2, 4, 6, and 8 hr. post dose.
# as §2, §3
# [6] = Oxidation stability (air bubbled through and sun light, HPLC); type: physicochemical; settings: exposed to air bubbled through and sun light for 24 hours
# Procedure: A solution of CBD in ethanol was exposed to air bubbled through and sun light. […] When the CBD metal complexes were exposed to air bubbled through oxidation and sun light for 24 hours, no change in CBD content is found, as determined by HPLC.
# [7] = octanol/water
# [8] = Reversibility of CBD salts to CBD on acidification; type: physicochemical; settings: dilute HCl, pH 3; 1H NMR
# Procedure: 1M HCl solution was added dropwise to aqueous solution of CBD-Na until pH of 3 was achieved. […] The ease of reversibility is paramount to the success of this work, as original compounds may be easily reconstituted by a simple chemical process.
# For all salts, adding acidic solution such as HCl, convert back the native CBD.
# [9] = NMR
# [10] = PO 12 mg/kg semaglutide; for T0.5 of semaglutide: n = 3
# Procedure: All compounds are powders and each material ratio is by mass.
# Animals are anesthetized for the period of surgery. An indwelling cannula is placed in the right jugular vein of each animal for systemic blood sampling. The cannula is tunnelled beneath the skin and exteriorized at the dorsal part of the neck. After completion of the surgical procedure, the animals are transferred to individual cages to recover overnight (12-18 h). During said recovery period, food, but not water, is deprived if an oral absorption experiment is conducted. Throughout the experiments, free access to food is available 4 h post oral administration.
# Animals are randomly assigned to the different experimental groups. […] Systemic blood samples (0.36 ml) are obtained by intravenous cannula, placed in the jugular vein. In the case of oral administration, samples are taken at 5 minutes pre-dose and at different time points post dose, according to the pharmacokinetic profile (blood will be drawn no more than 10% of rat blood volume). To prevent dehydration, equal volumes of physiological solution are administered to the rats following each blood sampling. Plasma is separated by centrifugation (4000 rpm, 7 minutes, 4 °C) and stored at −20° C. pending analysis. Plasma samples were analyzed by a developed LC-MS method for Semaglutide.
# PK parameters were extracted from the data in a semi-logarithmic scale. […] It is further important to mention that the formulations were prepared by mass ratios.
# AUC0-∞^# was calculated for infinity by using the terminal slope.
# mold = assay: Hay bale packed in coated packaging; settings: after 2 weeks; control bale became moldy
# Source text: The copper and zinc-thymol salts were incorporated in polystyrene foam, in a hydrogel during their manufacturing and in coating material of potato seeds and hay packaging material. Moreover, the thymol copper was incorporated in polyethylene sheets during melt extrusion. The salts were incorporated in these formulations while thymol could not be incorporated due to its evaporation rate and low melting point. Thymol was constantly released to air over a period of 3 weeks while protecting the hay from microbial contamination.
# In a typical experiment, fresh hay was packed with thymol coated and copper-thymol salt coated packaging. After 2 weeks, the control bale became moldy.
# various viruses = settings: plants in polystyrene trays containing the salt; blank trays heavily infected
# Source text: These trays were used for planting tomato plants contaminated with various viruses.
compound,measurement,setting,value
2Na(2-isopropyl-5-methylphenolate)4Zn [Thymol salt 2Na4Zn],% of thymol regenerated,[1],74%
"C=C(C)[C@@H]1CCC(C)=C[C@H]1c1c(O)cc(CCCCC)cc1O [CBD, cannabidiol]",solubility,[2]; water,12.6 µg/mL
same,T0.5,"[3]; PO 15 mg/kg in PNL, n = 5",1.05 ± 0.46 h
same,AUC(0-inf),"[3]; rat, plasma, PO 15 mg/kg in PNL, calculated for infinity by the terminal slope, n = 5",846 ± 321 ng·h/mL
same,bioavailability,"[3]; rat, plasma, PO 15 mg/kg in PNL, calculated using data of CBD in PNL by IV administration, read-out: Fabs (%) (Absolute bioavailability)",18.8 ± 7.1%
same,Cmax,"[3]; rat, plasma, PO 15 mg/kg in PNL, n = 5",200 ± 79.5 ng/mL
same,AUC(0-t),"[3]; rat, CBD in plasma, PO 15 mg/kg in PNL formulation suspended (X10) in water, until 10 hours, n = 5, read-out: AUC0-10",841 ± 319 ng·h/mL
same,CBD regenerat. (%),[4],100.00%
same,T0.5,"[5]; IV 1 mg/kg in PNL, n = 5",1.45 h
same,clearance,"[5]; rat, plasma, IV 1 mg/kg in PNL, n = 5",56.3 mL/min/kg
same,Vd,"[5]; rat, plasma, IV 1 mg/kg in PNL, n = 5, read-out: Volume of distribution",7.02 L/kg
same,AUC(0-inf),"[5]; rat, CBD in plasma, IV 1 mg/kg in PNL formulation suspended (X10) in water, until 8 hours, n = 5",300 ng·h/mL
same,Change in CBD content,[6],decrease in CBD content
C=C(C)C1CCC(C)=CC1c1c(O)cc(CCCCC)cc1O (stereo not shown) [CBD-Choline (1:1) salt],CBD regenerat. (%),[4],67.01%
same,CBD regenerat. (%),[4]; listed as CBD-Choline (1:1),about 67.0%
C=C(C)C1CCC(C)=CC1c1c([O-])cc(CCCCC)cc1[O-].C[N+](C)(C)CCO.C[N+](C)(C)CCO (stereo not shown) [CBD-Choline],T0.5,"[3]; PO, MS correction (0.17), n = 3",1.37 ± 0.47 h
same,T0.5,"[3]; PO, MW adjustment (0.6), n = 3",1.37 ± 0.47 h
same,Log P,[7],1.71
same,T0.5,"[5]; IV, MS correction (0.17), PNL, n = 4",0.98 h
same,T0.5,"[5]; IV, MW adjustment (0.6), PNL, n = 4",1.07 h
same,Blood levels after IV compared with CBD,"[5]; rats, IV",comparable
same,Conversion back to CBD on acidification,[8],successfully regenerated
C=C(C)C1CCC(C)=CC1c1c([O-])cc(CCCCC)cc1[O-].[K+].[K+] (stereo not shown) [CBD-K],Solubility in water,[2],2000 µg/mL
C=C(C)C1CCC(C)=CC1c1c([O-])cc(CCCCC)cc1[O-].[Na+].[Na+] (stereo not shown) [CBD-Na],Solubility in water,[2],10000 µg/mL
same,Conversion back to CBD on acidification,[8],confirmed by ^1H NMR to be CBD
"O=C([O-])CCCCCCCNC(=O)c1ccccc1O.[Na+] [SNAC, Salcaprozate Sodium]",Behaviour on reducing the pH to acidic pH (1.2),[9],precipitated
C[N+](C)(C)CCO.O=C([O-])CCCCCCCNC(=O)c1ccccc1[O-].[Na+] [SNAC-CH],T0.5 of semaglutide,[10],2.62 ± 0.35 h
O=C([O-])CCCCCCCNC(=O)c1ccccc1O.[Na+] [SNAC-Na],Semaglutide absorption compared with the SNAC formulation,[10],didn't contribute to the semaglutide absorption
O=C([O-])CCCCCCCNC(=O)c1ccccc1[O-].[Na+].[Na+] [SNAC-Na],T0.5 of semaglutide,[10],2.26 ± 1.07 h
"Cc1ccc(C(C)C)c(O)c1 [Thymol salt Copper (II), copper(II) 2-isopropyl-5-methylphenolate]",% of thymol regenerated,[1]; listed as Copper (II),72%
same,Mold on hay bale,mold,has not shown any mold
"Cc1ccc(C(C)C)c(O)c1 [Thymol salt Ferrous (II), ferrous (II) 2-isopropyl-5-methylphenolate]",% of thymol regenerated,[1],97%
"Cc1ccc(C(C)C)c([O-])c1.[Li+] [Thymol salt Lithium, lithium 2-isopropyl-5-methylphenolate]",% of thymol regenerated,[1],63%
"Cc1ccc(C(C)C)c([O-])c1.[K+] [Thymol salt Potassium, potassium 2-isopropyl-5-methylphenolate]",% of thymol regenerated,[1],57%
"Cc1ccc(C(C)C)c(O)c1 [Thymol salt Silver, silver 2-isopropyl-5-methylphenolate]",% of thymol regenerated,[1]; listed as Silver,57%
"Cc1ccc(C(C)C)c([O-])c1.[Na+] [Thymol salt Sodium, sodium 2-isopropyl-5-methylphenolate]",% of thymol regenerated,[1],68%
"CCCC[N+](CCCC)(CCCC)CCCC [Thymol salt Tetrabutylammonium, tetrabutylammonium 2-isopropyl-5-methylphenolate]",% of thymol regenerated,[1],94%
"Cc1ccc(C(C)C)c(O)c1 [Thymol salt Zinc (II), zinc(II) 2-isopropyl-5-methylphenolate]",% of thymol regenerated,[1]; listed as Zinc (II),59%
O=C([O-])c1ccccc1.O=C([O-])c1ccccc1.[Cu+2] [copper benzoate],Infection of tomato plants,various viruses,did not demonstrate any infection
manganese (II) 2-isopropyl-5-methylphenolate [Thymol salt Manganese(II)],% of thymol regenerated,[1],77%
